The target in this experiment is BRD4-BD1 (44-164) (Homo sapiens (Human), UniProt O60885). Nature of the experiment: Alphascreen binding assay BRD4-BD1. The note with it: BRD4(1) H4; read-out: Biochemical activity (IC50 μM) BRD4(1) H4. The procedure: Binding of compounds of formula (I) with bromodomain 2, 3 4 was assessed using Alphascreen binding assay. The inhibition of the interaction between bromodomain and its acetylated target protein (Filippakopoulos P et al. 2012) was measured quantitatively using recombinant BRD proteins, an acetylated Histone 4 peptide and AlphaScreen™ technology. In absence of inhibition the BRD protein bound to AlphaScreen™ nickel chelate acceptor beads can interact with the acetylated Histone 4 peptide which is immobilized by the AlphaScreen™ Streptavidin coated beads. This interaction brings donor and acceptor beads in proximity. The close proximity allows the singlet oxygen produced by laser excitation of the donor beads to reach the acceptor beads and generate a luminescence signal.
Recombinant human bromodomains containing the N-terminal bromodomain (BRD2-BD1 (71-194), BRD3-BD1 (24-144) and BRD4-BD1 (44-164)) or dual bromodomains (BRD4-BD12 (1-477), BRD4-BD12 (1-472)) were prepared and purified as described in protein expression and purification session. The peptide is human Histone H41-21K5AcK8AcK12AcK16Ac-Biotin (Anaspec CA, USA).
Protocol for BRD2, BRD3 and BRD4 assay: All components are prepared in buffer composed of 50 mM HEPES pH 7.5, 100 mM NaCl, 0.01% bovine serum albumin (“BSA”), 0.01% Triton X-100, 2 mM dithiothreitol (“DTT”). 7 μL of Bromodomain protein and 7 μL of peptide are added to wells containing 1 μL of various concentrations of test compounds of formula (I) or DMSO vehicle in an Alphaplate (PerkinElmer GA, USA) and incubated for 1 hour at room temperature. 4 μL donor and acceptor bead mixture is then added with final concentrations of 7.5 μg/ml. 30 minutes after bead addition, Alpha signal is read on the Envision spectrometer (λEx 680 nm, λEm 520-620 nm). Final concentrations of bromodomain proteins and peptide are as shown below.
All data was normalized to the mean of 16 high and 16 low control wells on each plate. A four parameter curve fit of the following formula was then applied: Y=a+(b−a)/(1+(x/c)^d) Where ‘a’ is the minimum, ‘b’ is the maximum, ‘c’ is the pIC50 and ‘d’ is the Hill slope. Protein Expression and Purification
Recombinant human bromodomains containing the N-terminal bromodomain (BRD2-BD1 (71-194), BRD3-BD1 (24-144) and BRD4-BD1 (44-164)) or dual bromodomains (BRD4-BD12 (1-477), BRD4-BD12 (1-472)) were expressed in E. coli cells (in a modified pET vector) with an N-terminal six-His tag and purified using a combination of both IMAC (Ni-affinity) and size exclusion chromatography steps.
Recombinant BRD proteins were expressed using the E. coli strain BL21-CodonPlus (DE3) (Agilent Technologies CA, USA). Cells were grown in Terrific Broth (TB) media to an OD600 of 1.2 at 37° C. at which temperature was reduced to 25° C., protein was induced with 1.0 mM ispropyl-β-D-thiogalactopyranoside (“IPTG”) for 12-18 hours and harvested by centrifugation at 8000×g for 20 minutes. Cells were re-suspended in 0.1M K2PO4 pH 8.0, 250 mM NaCl, 10% Glycerol, 0.75% NP-40, 25 mM Imidazole, 5 mM beta-mercaptoethanol (“BME”) with 0.2 mg/ml Lysosyme, 2.0 mM phenylmethanesulfonyl fluoride (“PMSF”), 25 μg/ml DNAse I, incubated on ice for 30 minutes and lyzed with a cell disruptor (MicroFluidics MA, USA). The lysate was clarified by centrifugation at 20,000×g for 2 hours. The protein was captured with Ni-NTA resin (Life Technologies, USA). Contaminating proteins were washed off with 25 mM Tris-HCl pH 8.3, 250 mM NaCl, 12% Glycerol and 50 mM Imidazole. Following 3× wash steps, protein was eluted step wise using a 50 mM HEPES pH 7.5, 500 mM NaCl and 400 mM Imidazole. The protein was further purified using Gel Filtration column 26/600 Superdex 200 (GE Biosciences NJ, USA) in 50 mM HEPES pH 7.5, 250 mM NaCl. The protein was aliquoted and flash-frozen in liquid Nitrogen.

Some results are limits rather than exact numbers.

As to `Cc1noc(C)c1-c1cnc2[nH]cc(Cc3cccnc3)c2c1` [P-0003, 3,5-dimethyl-4-[3-(3-pyridylmethyl)-1H-pyrrolo[2,3-b]pyridin-5-yl]isoxazole], the IC50 was less than 1 µM. Regarding `Cc1noc(C)c1-c1cnc2[nH]c(C)c(Cc3cccnc3)c2c1` [P-0005, 3,5-dimethyl-4-[2-methyl-3-(3-pyridylmethyl)-1H-pyrrolo[2,3-b]pyridin-5-yl]isoxazole], the IC50 is less than 1 µM. With `Cc1noc(C)c1-c1cnc2[nH]c(-c3ccc(F)cc3)c(Cc3cccnc3)c2c1` [P-0007, 4-[2-(4-fluorophenyl)-3-(3-pyridylmethyl)-1H-pyrrolo[2,3-b]pyridin-5-yl]-3,5-dimethyl-isoxazole], the IC50 is less than 1 µM. Then `Cc1noc(C)c1-c1cnc2[nH]c(C)c(C(O)c3cccnc3)c2c1` (stereo not shown) [P-0009, [5-(3,5-dimethylisoxazol-4-yl)-2-methyl-1H-pyrrolo[2,3-b]pyridin-3-yl]-(3-pyridyl)methanol], with less than 1 µM.

As to `COc1ncc(F)cc1C(OC)c1c[nH]c2ncc(-c3c(C)noc3C)cc12` (stereo not shown) [P-0011, 4-[3-[(5-fluoro-2-methoxy-3-pyridyl)-methoxy-methyl]-1H-pyrrolo[2,3-b]pyridin-5-yl]-3,5-dimethyl-isoxazole], the 50% inhibitory concentration (IC50) was less than 1 µM. As for `Cc1noc(C)c1-c1cnc2[nH]cc(C(O)c3ccc(OCC(F)(F)F)nc3)c2c1` (stereo not shown) [P-0012, [5-(3,5-dimethylisoxazol-4-yl)-1H-pyrrolo[2,3-b]pyridin-3-yl]-[6-(2,2,2-trifluoroethoxy)-3-pyridyl]methanol], the figure is less than 1 µM; as for `COC(c1ccc(C(F)(F)F)nc1)c1c[nH]c2ncc(-c3c(C)noc3C)cc12` (stereo not shown) [P-0013, 4-[3-[methoxy-[6-(trifluoromethyl)-3-pyridyl]methyl]-1H-pyrrolo[2,3-b]pyridin-5-yl]-3,5-dimethyl-isoxazole], less than 1 µM; as for `COC(c1c(F)cccc1Cl)c1c[nH]c2ncc(-c3c(C)noc3C)cc12` (stereo not shown) [P-0014, 4-[3[(2-chloro-6-fluoro-phenyl)-methoxy-methyl]-1H-pyrrolo[2,3-b]pyridin-5-yl]-3,5-dimethyl-isoxazole], less than 1 µM. Then `Cc1noc(C)c1-c1cnc2[nH]cc(C(O)c3ccccc3Cl)c2c1` (stereo not shown) [P-0019, (2-chlorophenyl)-[5-(3,5-dimethylisoxazol-4-yl)-1H-pyrrolo[2,3-b]pyridin-3-yl]methanol], with less than 1 µM.

As for `COC(c1ccccc1Cl)c1c[nH]c2ncc(-c3c(C)noc3C)cc12` (stereo not shown) [P-0020, 4-[3-[(2-chlorophenyl)-methoxy-methyl]-1H-pyrrolo[2,3-b]pyridin-5-yl]-3,5-dimethyl-isoxazole], the half-maximal inhibitory concentration (IC50) was less than 1 µM. Then `Cc1noc(C)c1-c1cnc2[nH]cc(C(O)c3c(F)cccc3Cl)c2c1` (stereo not shown) [P-0021, (2-chloro-6-fluoro-phenyl)-[5-(3,5-dimethylisoxazol-4-yl)-1H-pyrrolo[2,3-b]pyridin-3-yl]methanol], with less than 1 µM; and `COc1ncc(F)cc1C(O)c1c[nH]c2ncc(-c3c(C)noc3C)cc12` (stereo not shown) [P-0022, [5-(3,5-dimethylisoxazol-4-yl)-1H-pyrrolo[2,3-b]pyridin-3-yl]-(5-fluoro-2-methoxy-3-pyridyl)methanol], with less than 1 µM; and `Cc1noc(C)c1-c1cnc2[nH]cc(C3(O)CCC(F)(F)CC3)c2c1` [P-0024, 1-[5-(3,5-dimethylisoxazol-4-yl)-1H-pyrrolo[2,3-b]pyridin-3-yl]-4,4-difluoro-cyclohexanol], with less than 1 µM. As for `COc1ncc(C(O)c2c[nH]c3ncc(-c4c(C)noc4C)cc23)cc1F` (stereo not shown) [P-0025, [5-(3,5-dimethylisoxazol-4-yl)-1H-pyrrolo[2,3-b]pyridin-3-yl]-(5-fluoro-6-methoxy-3-pyridyl)methanol], the IC50 is less than 1 µM. `Cc1noc(C)c1-c1cnc2[nH]cc(Cc3ccccc3Cl)c2c1` [P-0026, 4-[3-[(2-chlorophenyl)methyl]-1H-pyrrolo[2,3-b]pyridin-5-yl]-3,5-dimethyl-isoxazole]: the IC50 is less than 1 µM. With `Cc1noc(C)c1-c1cnc2[nH]cc(Cc3c(F)cccc3Cl)c2c1` [P-0027, 4-[3-[(2-chloro-6-fluoro-phenyl)methyl]-1H-pyrrolo[2,3-b]pyridin-5-yl]-3,5-dimethyl-isoxazole], the IC50 was less than 1 µM. As for `COc1ncc(F)cc1Cc1c[nH]c2ncc(-c3c(C)noc3C)cc12` [P-0028, 4-[3-[(5-fluoro-2-methoxy-3-pyridyl)methyl)-1H-pyrrolo[2,3-b]pyridin-5-yl]-3,5-dimethyl-isoxazole], the IC50 is less than 1 µM. As for `Cc1noc(C)c1-c1cnc2[nH]cc(C3=CCC(F)(F)CC3)c2c1` [P-0029, 4-[3-(4,4-difluorocyclo-hexen-1-yl)-1H-pyrrolo[2,3-b]pyridin-5-yl]-3,5-dimethyl-isoxazole], the figure is less than 1 µM. As for `Cc1noc(C)c1-c1cnc2[nH]cc(C(O)C3CCC(F)(F)CC3)c2c1` (stereo not shown) [P-0030, (4,4-difluorocyclohexyl)-[5-(3,5-dimethylisoxazol-4-yl)-1H-pyrrolo[2,3-b]pyridin-3-yl]methanol], the figure is less than 1 µM; as for `Cc1noc(C)c1-c1cnc2[nH]cc(C(=O)C3CCC(F)(F)CC3)c2c1` [P-0031, (4,4-difluorocyclohexyl)-[5-(3,5-dimethylisoxazol-4-yl)-1H-pyrrolo[2,3-b]pyridin-3-yl]methanone], less than 1 µM; as for `Cc1noc(C)c1-c1cnc2[nH]cc(CC3CCC(F)(F)CC3)c2c1` [P-0034, 4-[3-[(4,4-difluoro-cyclohexyl)methyl]-1H-pyrrolo[2,3-b]pyridin-5-yl]-3,5-dimethyl-isoxazole], less than 1 µM. Then `CCCCS(=O)(=O)n1ccc2ncc(-c3c(C)noc3C)cc21` [P-0036, 4-(1-butylsulfonylpyrrolo[3,2-b]pyridin-6-yl)-3,5-dimethyl-isoxazole], with less than 1 µM; and `Cc1noc(C)c1-c1cnc2ccn(S(=O)(=O)C3CCCC3)c2c1` [P-0037, 4-(1-cyclopentyl-sulfonylpyrrolo[3,2-b]pyridin-6-yl)-3,5-dimethyl-isoxazole], with less than 1 µM; and `Cc1noc(C)c1-c1cnc2ccn(S(=O)(=O)c3ccccc3)c2c1` [P-0038, 4-[1-(benzenesulfonyl)pyrrolo[3,2-b]pyridin-6-yl]-3,5-dimethyl-isoxazole], with less than 1 µM.

In the case of `Cc1noc(C)c1-c1cnc2[nH]cc(C(O)c3cccc(OC(F)(F)F)c3)c2c1` (stereo not shown) [P-0039, [5-(3,5-dimethylisoxazol-4-yl)-1H-pyrrolo[2,3-b]pyridin-3-yl]-[3-(trifluoromethoxy)phenyl]methanol], the IC50 is less than 1 µM.

On to `Cc1noc(C)c1-c1cnc2[nH]cc(C(O)c3ccccc3OC(F)F)c2c1` (stereo not shown) [P-0040, [2-(difluoromethoxy)phenyl]-[5-(3,5-dimethylisoxazol-4-yl)-1H-pyrrolo[2,3-b]pyridin-3-yl]methanol], for which the IC50 was less than 1 µM. Then `Cc1noc(C)c1-c1cnc2[nH]cc(C(O)c3cccc4c3OC(F)(F)O4)c2c1` (stereo not shown) [P-0041, (2,2-difluoro-1,3-benzodioxol-4-yl)-[5-(3,5-dimethylisoxazol-4-yl)-1H-pyrrolo[2,3-b]pyridin-3-yl]methanol], with less than 1 µM; and `CCc1[nH]c2ncc(-c3c(C)noc3C)cc2c1C(O)c1ccccc1Cl` (stereo not shown) [P-0042, (2-chlorophenyl)-[5-(3,5-dimethylisoxazol-4-yl)-2-ethyl-1H-pyrrolo[2,3-b]pyridin-3-yl]methanol], with less than 1 µM.

For the origin of these results see patent publication US10519177B2, “Heterocyclic compounds and uses thereof” (Plexxikon Inc., priority 2013, dated 2019).
